# Laboratory results from US20240132484A1, “BROAD SPECTRUM ANTIVIRAL COMPOUNDS TARGETING THE SKI COMPLEX” (priority 2020, published 2024).
# Where “and” joins values, the source holds several entries; their conditions need not be identical. Equal entries are not always repeated. Where two headings read alike, the source gives them in different places.
# Key:
# SARS2 = format: cell-based, SARS-CoV-2; details: for Percentage Inhibition Average 1 μM / Screening data (Relative infection to DMSO controls) Average 1 μM: SARS2, 1 μM; for Screening data (Relative infection to DMSO controls) Average 1 μM / Screening data (Relative infection to DMSO controls) Average 5 μM / Screening data (Relative infection to DMSO controls) Average 10 μM / Screening data (Relative infection to DMSO controls) Average 25 μM / Screening data (Relative infection to DMSO controls) Average 50 μM / Average (relative infection to DMSO over the 5 tested concentrations): 100=DMSO control; for Percentage Inhibition Average 5 μM / Screening data (Relative infection to DMSO controls) Average 5 μM: SARS2, 5 μM; for Percentage Inhibition Average 10 μM / Screening data (Relative infection to DMSO controls) Average 10 μM: SARS2, 10 μM; for Percentage Inhibition Average 25 μM / Screening data (Relative infection to DMSO controls) Average 25 μM: SARS2, 25 μM; for Percentage Inhibition Average 50 μM / Screening data (Relative infection to DMSO controls) Average 50 μM: SARS2, 50 μM; for Average (relative infection to DMSO over the 5 tested concentrations): SARS2, average over 1 to 50 uM; for Percentage Infection Relative to Appropriate DMSO Control with Avg Background Subtraction: single well
# cells (nuclei count) = details: for Toxicity Data: Average, Mean: average of Exp 1-3 (SMW454, SMW466, SMW480), n 9; for Relative cell count to DMSO controls, Average 1 μM / Relative cell count to DMSO controls, Average 5 μM / Relative cell count to DMSO controls, Average 10 μM / Relative cell count to DMSO controls, Average 25 μM / Relative cell count to DMSO controls, Average 50 μM: toxicity data, 100=DMSO control; for Relative cell count to DMSO controls, Average (for correlation analysis): average value over the 5 tested concentrations (1 to 50 uM)
smiles,measurement,setting,value
CN(C)CCN(Cc1ccsc1)Cc1ccco1 [SILCS12],"Percentage Infection Relative to DMSO Control, Average, Mean",SARS2,76.66% and 135.12% and 110.30% and 109.01% and 120.43%
same,Percentage Inhibition Average 1 μM,SARS2,−20.43%
same,Screening data (Relative infection to DMSO controls) Average 1 μM,SARS2,120.43
same,Percentage Inhibition Average 5 μM,SARS2,−9.01%
same,Screening data (Relative infection to DMSO controls) Average 5 μM,SARS2,109.01
same,Percentage Inhibition Average 10 μM,SARS2,−10.30%
same,Screening data (Relative infection to DMSO controls) Average 10 μM,SARS2,110.30
same,Percentage Inhibition Average 25 μM,SARS2,−35.12%
same,Screening data (Relative infection to DMSO controls) Average 25 μM,SARS2,135.12
same,Percentage Inhibition Average 50 μM,SARS2,23.34%
same,Screening data (Relative infection to DMSO controls) Average 50 μM,SARS2,76.66
same,Average (relative infection to DMSO over the 5 tested concentrations),SARS2,110.30
same,"Toxicity Data: Average, Mean",cells (nuclei count); 1 uM,103.58%
same,"Relative cell count to DMSO controls, Average 1 μM",cells (nuclei count),103.58
same,"Toxicity Data: Average, Mean",cells (nuclei count); 5 uM,102.70%
same,"Relative cell count to DMSO controls, Average 5 μM",cells (nuclei count),102.7
same,"Toxicity Data: Average, Mean",cells (nuclei count); 10 uM,96.10%
same,"Relative cell count to DMSO controls, Average 10 μM",cells (nuclei count),96.1
same,"Toxicity Data: Average, Mean",cells (nuclei count); 25 uM,95.34%
same,"Relative cell count to DMSO controls, Average 25 μM",cells (nuclei count),95.34
same,"Toxicity Data: Average, Mean",cells (nuclei count); 50 uM,66.97%
same,"Relative cell count to DMSO controls, Average 50 μM",cells (nuclei count),66.97
same,"Relative cell count to DMSO controls, Average (for correlation analysis)",cells (nuclei count),92.94
CN(C)CCN(Cc1ccccc1)Cc1cc(C#CCO)cs1 [SILCS5],"Percentage Infection Relative to DMSO Control, Average, Mean",SARS2,75.63% and 81.28% and 98.58% and 104.84% and 111.97%
same,Percentage Inhibition Average 1 μM,SARS2,−11.97%
same,Screening data (Relative infection to DMSO controls) Average 1 μM,SARS2,111.97
same,Percentage Inhibition Average 5 μM,SARS2,−4.84%
same,Screening data (Relative infection to DMSO controls) Average 5 μM,SARS2,104.84
same,Percentage Inhibition Average 10 μM,SARS2,1.42%
same,Screening data (Relative infection to DMSO controls) Average 10 μM,SARS2,98.58
same,Percentage Inhibition Average 25 μM,SARS2,18.72%
same,Screening data (Relative infection to DMSO controls) Average 25 μM,SARS2,81.28
same,Percentage Inhibition Average 50 μM,SARS2,24.37%
same,Screening data (Relative infection to DMSO controls) Average 50 μM,SARS2,75.63
same,Average (relative infection to DMSO over the 5 tested concentrations),SARS2,94.46
same,"Relative cell count to DMSO controls, Average 1 μM",cells (nuclei count),113.75
same,"Relative cell count to DMSO controls, Average 5 μM",cells (nuclei count),108.79
same,"Relative cell count to DMSO controls, Average 10 μM",cells (nuclei count),102.76
same,"Relative cell count to DMSO controls, Average 25 μM",cells (nuclei count),105.3
same,"Relative cell count to DMSO controls, Average 50 μM",cells (nuclei count),75.59
same,"Toxicity Data, Average, Mean (relative to DMSO control)","cells (nuclei count); Average of Exp 1-3, 1 uM",113.75%
same,"Toxicity Data, Average, Mean (relative to DMSO control)","cells (nuclei count); Average of Exp 1-3, 5 uM",108.79%
same,"Toxicity Data, Average, Mean (relative to DMSO control)","cells (nuclei count); Average of Exp 1-3, 10 uM",102.76%
same,"Toxicity Data, Average, Mean (relative to DMSO control)","cells (nuclei count); Average of Exp 1-3, 25 uM",105.30%
same,"Toxicity Data, Average, Mean (relative to DMSO control)","cells (nuclei count); Average of Exp 1-3, 50 uM",75.59%
same,"Relative cell count to DMSO controls, Average (for correlation analysis)",cells (nuclei count),101.24
CCN(CC)CCN(Cc1ccccc1)Cc1ccc(C)o1 [SILCS23],"Infection Data, Average, Mean","SARS2; Average of Exp 1-3, n 9, 1 uM",83.26%
same,"Infection Data, Average, Mean","SARS2; Average of Exp 1-3, n 9, 5 uM",72.94%
same,"Infection Data, Average, Mean","SARS2; Average of Exp 1-3, n 9, 10 uM",71.95%
same,"Infection Data, Average, Mean","SARS2; Average of Exp 1-3, n 9, 25 uM",42.51%
same,"Infection Data, Average, Mean","SARS2; Average of Exp 1-3, n 9, 50 uM",25.76%
same,Percentage Infection Relative to Appropriate DMSO Control with Avg Background Subtraction,"SARS2; Exp 1 (SMW475), 1 uM",84.61% and 99.83% and 96.53%
same,Percentage Infection Relative to Appropriate DMSO Control with Avg Background Subtraction,"SARS2; Exp 1 (SMW475), 5 uM",76.20% and 84.17% and 85.48%
same,Percentage Infection Relative to Appropriate DMSO Control with Avg Background Subtraction,"SARS2; Exp 1 (SMW475), 10 uM",57.63% and 66.75% and 71.82%
same,Percentage Infection Relative to Appropriate DMSO Control with Avg Background Subtraction,"SARS2; Exp 1 (SMW475), 25 uM",23.73% and 16.03% and 21.54%
same,Percentage Infection Relative to Appropriate DMSO Control with Avg Background Subtraction,"SARS2; Exp 1 (SMW475), 50 uM",11.05% and 12.93% and 12.05%
same,Percentage Infection Relative to Appropriate DMSO Control with Avg Background Subtraction,"SARS2; Exp 2 (SMW477), 1 uM",76.88% and 82.87% and 95.55%
same,Percentage Infection Relative to Appropriate DMSO Control with Avg Background Subtraction,"SARS2; Exp 2 (SMW477), 5 uM",77.18% and 66.56% and 59.07%
same,Percentage Infection Relative to Appropriate DMSO Control with Avg Background Subtraction,"SARS2; Exp 2 (SMW477), 10 uM",81.53% and 45.87% and 61.92%
same,Percentage Infection Relative to Appropriate DMSO Control with Avg Background Subtraction,"SARS2; Exp 2 (SMW477), 25 uM",42.76% and 36.42% and 27.04%
same,Percentage Infection Relative to Appropriate DMSO Control with Avg Background Subtraction,"SARS2; Exp 2 (SMW477), 50 uM",22.07% and 19.29% and 19.84%
same,Percentage Infection Relative to Appropriate DMSO Control with Avg Background Subtraction,"SARS2; Exp 3 (SMW478), 1 uM",74.83% and 73.82% and 64.40%
same,Percentage Infection Relative to Appropriate DMSO Control with Avg Background Subtraction,"SARS2; Exp 3 (SMW478), 5 uM",80.66% and 70.90% and 56.23%
same,Percentage Infection Relative to Appropriate DMSO Control with Avg Background Subtraction,"SARS2; Exp 3 (SMW478), 10 uM",84.08% and 95.62% and 82.31%
same,Percentage Infection Relative to Appropriate DMSO Control with Avg Background Subtraction,"SARS2; Exp 3 (SMW478), 25 uM",59.17% and 74.77% and 81.13%
same,Percentage Infection Relative to Appropriate DMSO Control with Avg Background Subtraction,"SARS2; Exp 3 (SMW478), 50 uM",42.28% and 47.99% and 44.36%
same,Percentage Inhibition Average 1 μM,SARS2,16.74%
same,Screening data (Relative infection to DMSO controls) Average 1 μM,SARS2,83.26
same,Percentage Inhibition Average 5 μM,SARS2,27.06%
same,Screening data (Relative infection to DMSO controls) Average 5 μM,SARS2,72.94
same,Percentage Inhibition Average 10 μM,SARS2,28.05%
same,Screening data (Relative infection to DMSO controls) Average 10 μM,SARS2,71.95
same,Percentage Inhibition Average 25 μM,SARS2,57.49%
same,Screening data (Relative infection to DMSO controls) Average 25 μM,SARS2,42.51
same,Percentage Inhibition Average 50 μM,SARS2,74.24%
same,Screening data (Relative infection to DMSO controls) Average 50 μM,SARS2,25.76
same,Average (relative infection to DMSO over the 5 tested concentrations),SARS2,59.28
same,"Relative cell count to DMSO controls, Average 1 μM",cells (nuclei count),123.69
same,"Relative cell count to DMSO controls, Average 5 μM",cells (nuclei count),129.2
same,"Relative cell count to DMSO controls, Average 10 μM",cells (nuclei count),125.61
same,"Relative cell count to DMSO controls, Average 25 μM",cells (nuclei count),112.58
same,"Relative cell count to DMSO controls, Average 50 μM",cells (nuclei count),92.88
same,"Toxicity Data, Average, Mean","cells (nuclei count); Average of Exp 1-3, n 9, 1 uM",123.69%
same,"Toxicity Data, Average, Mean","cells (nuclei count); Average of Exp 1-3, n 9, 5 uM",129.20%
same,"Toxicity Data, Average, Mean","cells (nuclei count); Average of Exp 1-3, n 9, 10 uM",125.61%
same,"Toxicity Data, Average, Mean","cells (nuclei count); Average of Exp 1-3, n 9, 25 uM",112.58%
same,"Toxicity Data, Average, Mean","cells (nuclei count); Average of Exp 1-3, n 9, 50 uM",92.88%
same,"Relative cell count to DMSO controls, Average (for correlation analysis)",cells (nuclei count),116.79
